# Experimental data: patent publication US20090182026A1, “ALPHA 2 ADRENERGIC AGONISTS” (ALLERGAN, INC., priority 2005, published 2009)
# Entries after “also recorded” stand apart in the source; their conditions may differ.
# Key:
# Alpha adrenergic = Alpha adrenergic activity of prior-application compound (statement); details: background statement
# alpha2A receptor = molecular target: T1, alpha2A receptor (Homo sapiens, UniProt P08913); assay: RSAT assay, alpha2A receptor; format: cell-based; details: NIH-3T3 cells, relative to brimonidine, NA = not active at concentrations less than 10 micromolar
# T1 construct: expressed in transfected cells; host or cells: NIH-3T3
# T1 sequence (P08913 1-465): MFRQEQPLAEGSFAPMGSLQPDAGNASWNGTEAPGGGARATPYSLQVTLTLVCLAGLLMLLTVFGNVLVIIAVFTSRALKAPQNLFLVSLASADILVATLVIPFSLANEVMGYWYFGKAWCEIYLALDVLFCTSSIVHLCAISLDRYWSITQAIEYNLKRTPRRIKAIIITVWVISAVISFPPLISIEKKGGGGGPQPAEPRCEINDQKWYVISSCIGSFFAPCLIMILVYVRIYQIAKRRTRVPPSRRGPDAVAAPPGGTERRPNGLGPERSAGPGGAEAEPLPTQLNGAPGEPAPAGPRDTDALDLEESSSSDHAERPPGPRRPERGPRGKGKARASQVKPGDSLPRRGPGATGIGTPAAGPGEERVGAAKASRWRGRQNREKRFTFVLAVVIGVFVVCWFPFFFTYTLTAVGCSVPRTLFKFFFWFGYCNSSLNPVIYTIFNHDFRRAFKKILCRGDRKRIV
# Protocol: (§1) The RSAT assay measures a receptor-mediated loss of contact inhibition that results in selective proliferation of receptor-containing cells in a mixed population of confluent cells. The increase in cell number is assessed with an appropriate transfected marker gene such as […], the activity of which can be easily measured in a 96-well format. Receptors that activate the G protein, Gq, elicit this response. Alpha2 receptors, which normally couple to Gi, activate the RSAT response when coexpressed with a hybrid Gq protein that has a Gi receptor recognition domain, called Gq/i5.
# (§2) NIH-3T3 cells are plated at a density of 2×10^6 cells in 15 cm dishes and maintained in Dulbecco's modified Eagle's medium supplemented with 10% calf serum. One day later, cells are cotransfected by calcium phosphate precipitation with mammalian expression plasmids encoding p-SV-β-galactosidase (5-10 μg), receptor (1-2 μg) and G protein (1-2 μg). 40 μg salmon sperm DNA may also be included in the transfection mixture. Fresh media is added on the following day and 1-2 days later, cells are harvested and frozen in 50 assay aliquots. Cells are thawed and 100 μl added to 100 μl aliquots of various concentrations of drugs in triplicate in 96-well dishes. Incubations continue 72-96 hr at 37° C. After washing with phosphate-buffered saline, β-galactosidase enzyme activity is determined by adding […] of the chromogenic substrate (consisting of 3.5 mM o-nitrophenyl-β-D-galactopyranoside and 0.5% nonidet P-40 in phosphate buffered saline), incubating overnight at 30° C. and measuring optical density at 420 nm. The absorbance is a measure of enzyme activity, which depends on cell number and reflects a receptor-mediated cell proliferation. The efficacy or intrinsic activity is calculated as a ratio of the maximal effect of the drug to the maximal effect of a standard full agonist for each receptor subtype. Brimonidine, also called UK14304, the chemical structure of which is shown below, is used as the standard agonist for the alpha2A, alpha2B and alpha2C receptors. […]
# alpha2B receptor = molecular target: T2, alpha2B receptor (Homo sapiens, UniProt P18089); assay: RSAT assay, alpha2B receptor; format: cell-based; details: NIH-3T3 cells, relative to brimonidine, NA = not active at concentrations less than 10 micromolar
# T2 construct: expressed in transfected cells; host or cells: NIH-3T3
# T2 sequence (P18089 1-450): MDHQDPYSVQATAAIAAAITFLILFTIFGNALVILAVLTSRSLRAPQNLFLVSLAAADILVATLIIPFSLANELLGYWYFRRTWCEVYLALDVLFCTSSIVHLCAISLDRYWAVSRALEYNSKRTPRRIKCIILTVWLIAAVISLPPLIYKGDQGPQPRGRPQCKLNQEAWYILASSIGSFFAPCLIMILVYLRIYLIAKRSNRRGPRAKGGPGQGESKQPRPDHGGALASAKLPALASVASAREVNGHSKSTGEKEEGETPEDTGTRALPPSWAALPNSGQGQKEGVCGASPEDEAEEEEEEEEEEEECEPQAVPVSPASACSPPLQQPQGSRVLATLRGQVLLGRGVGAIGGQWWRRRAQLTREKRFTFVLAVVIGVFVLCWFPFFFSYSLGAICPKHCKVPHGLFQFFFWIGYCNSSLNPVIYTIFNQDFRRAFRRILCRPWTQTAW
# Protocol: as §1, §2
# alpha2C receptor = molecular target: T3, alpha2C receptor (Homo sapiens, UniProt P18825); assay: RSAT assay, alpha2C receptor; format: cell-based; details: NIH-3T3 cells, relative to brimonidine, NA = not active at concentrations less than 10 micromolar
# T3 construct: expressed in transfected cells; host or cells: NIH-3T3
# T3 sequence (P18825 1-462): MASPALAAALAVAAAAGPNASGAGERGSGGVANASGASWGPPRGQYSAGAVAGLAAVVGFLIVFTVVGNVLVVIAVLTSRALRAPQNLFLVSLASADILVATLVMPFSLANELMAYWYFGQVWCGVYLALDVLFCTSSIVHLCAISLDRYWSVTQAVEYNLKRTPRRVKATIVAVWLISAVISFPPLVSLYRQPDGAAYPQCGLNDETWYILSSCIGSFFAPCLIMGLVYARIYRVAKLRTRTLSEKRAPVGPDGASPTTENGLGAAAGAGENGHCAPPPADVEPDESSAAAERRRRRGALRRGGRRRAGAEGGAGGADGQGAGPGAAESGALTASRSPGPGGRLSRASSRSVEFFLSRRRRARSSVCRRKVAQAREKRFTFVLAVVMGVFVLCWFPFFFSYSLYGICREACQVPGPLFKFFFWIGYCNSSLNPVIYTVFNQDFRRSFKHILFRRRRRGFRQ
# Protocol: as §1, §2
# α1 = assay: RSAT assay, α1 receptor; format: cell-based; details: NIH-3T3 cells, ratio of maximal effect to that of standard full agonist, NA = not active at concentrations less than 10 micromolar
# Protocol: as §1
# NIH-3T3 cells are plated at a density of 2×10^6 cells in 15 cm dishes and maintained in Dulbecco's modified Eagle's medium supplemented with 10% calf serum. […] After washing with phosphate-buffered saline, β-galactosidase enzyme activity is determined by adding […] of the chromogenic substrate (consisting of 3.5 mM o-nitrophenyl-β-D-galactopyranoside and 0.5% nonidet P-40 in phosphate buffered saline), incubating overnight at 30° C. and measuring optical density at 420 nm. The absorbance is a measure of enzyme activity, which depends on cell number and reflects a receptor-mediated cell proliferation. The efficacy or intrinsic activity is calculated as a ratio of the maximal effect of the drug to the maximal effect of a standard full agonist for each receptor subtype. […]
# tactile hypersensitivity = assay: Mouse model of tactile hypersensitivity (sulprostone); format: in vivo, Mice; details: for activity in mouse model of tactile hypersensitivity: general statement, no dose
# Protocol: Mice (5-6; 25-35 g) are injected with sulprostone (300 ng/kg intraperitoneal), a prostaglandin receptor agonist that activates EP1 prostaglandin receptors. This chemical stimulus results in sensitivity to light stroking of their flanks with a paintbrush, which is assessed every five minutes from 15 minutes to 50 minutes post-injection. Animals are scored as 0 (no response), 1 (avoidance) or 2 (vigorous avoidance, vocalization) every five minutes and the scores are summed to yield a total hypersensitivity score (maximum=16).
# Compounds were tested for their ability to reduce the tactile hypersensitivity score when administered 15 min prior to the sulprostone. […] An oral dose of 300 ug/kg was also active. An ester prodrug, compound 3, was also tested orally.
# [1] = tested on: intraocular pressure (IOP); assay: IOP model, normotensive rabbits; format: in vivo, New Zealand Rabbits; details: for lowering of IOP: qualitative statement (FIG. 2); for decrease in IOP: topical, rabbit eye (FIG. 2)
# Protocol: Male New Zealand Rabbits (6-7; 2-3.5 kg) are used to evaluate drug effects on normotensive IOP measurements. The rabbits are carefully handled so as to minimize excitement. Approximately 25 ul of dilute OphtheticR (0.05%) topical anesthesia is administered to each eye. An initial IOP determination is made in both eyes. Rabbits with 3 mmHg or greater difference in IOP between its right and left eyes are replaced at this time.
# Immediately following the T=0 reading in both eyes the rabbits are treated with the compound by a topical route. 35 ul of the test solution is instilled onto the cornea of the randomly selected test eye. Pressure readings are taken at various times post-instillation. Animals are kept in their cages with access to food and water between measurements. Pressure readings utilize a Model 30 Classic™ Pneumatonometer to measure intraocular pressure (IOP) non-invasively through applanation tonometry. compound 1 (0.1%) caused a 20% decrease in IOP and its ester, AGN 204216 (0.03%), caused a 30% decrease in IOP (FIG. 2)
# locomotor activity [2] = assay: Sedation model, exploratory locomotor activity, rats; format: in vivo; details: for rat locomotor activity: 30 min after dosing (FIG. 3)
# Protocol: (§3) The utility of alpha2-adrenergic agonists is limited by a range of side effects, particularly sedation and cardiovascular depression. The sedative activity of the compounds is assessed by measuring their ability to reduce the exploratory activity of mice and rats when placed in a dark chamber 30 min following dosing. The animal's activity is determined automatically by placing it in a digicom analyzer chamber (Omnitech Electronic). These chambers have photocells criss-crossing the box that are broken as the animal moves around. The computer analyzes this movement and records total activity over a 5-min time period. […] This represents greater than a 300-fold margin of safety (FIG. 4).
# locomotor activity [3] = assay: Sedation model, exploratory locomotor activity, mice; format: in vivo
# Protocol: as §3
structure (smiles),measurement,setting,value
O=c1[nH]cc(CC2CCC=C(CO)C2)[nH]1 (centres unmarked),Alpha adrenergic activity,Alpha adrenergic,no Alpha adrenergic activity
NCC1=CCCC(Cc2c[nH]c(=S)[nH]2)C1 (centres unmarked),Intrinsic activity α2A,alpha2A receptor,0.81
same,Intrinsic activity α2B,alpha2B receptor,0.86
same,Intrinsic activity α2C,alpha2C receptor,0.95
OCC1=CCC[C@@H](Cc2c[nH]c(=S)[nH]2)C1,Intrinsic activity α1,α1,1.1
same,Intrinsic activity α2A,alpha2A receptor,0.9
same,Intrinsic activity α2B,alpha2B receptor,1.0
same,Intrinsic activity α2C,alpha2C receptor,1.1
"OCC1=CCCC(Cc2c[nH]c(=S)[nH]2)C1 (centres unmarked) [Compound 1, 4-(3-hydroxymethyl-cyclohex-3-enylmethyl)-1,3-dihydro-imidazole-2-thione]",reduction of tactile hypersensitivity,"tactile hypersensitivity; dosed intraperitoneally 15 min prior to sulprostone, dose response",reduced the hypersensitivity in a dose-related manner
same,effect on tactile hypersensitivity,"tactile hypersensitivity; intraperitoneal, 30 ug/kg",partial effect
same,effect on tactile hypersensitivity,"tactile hypersensitivity; intraperitoneal, 100 ug/kg",full effect
same,total tactile hypersensitivity score,"tactile hypersensitivity; intraperitoneal, 100 ug/kg, maximum=16, sulprostone 12-14, vehicle 4-6",5
same,effect on tactile hypersensitivity,tactile hypersensitivity; oral dose of 300 ug/kg,active
same,lowering of IOP,[1],lower rabbit IOP
same,decrease in IOP,[1]; 35 ul of 0.1% solution,20%
same,rat locomotor activity,locomotor activity [2]; intraperitoneal doses up to at least 3 mg/kg,did not decrease rat locomotor activity
same,rat locomotor activity,locomotor activity [2]; oral doses up to at least 10 mg/kg,did not decrease rat locomotor activity
same,sedation / decrease of locomotor activity,"locomotor activity [2]; qualitative statement, no dose",does not sedate rats
same,margin of safety (non-sedating dose vs effective dose),locomotor activity [2]; rat locomotor activity vs tactile hypersensitivity doses,≥ 30 fold
"O=C(CC1CCCC1)OCC1=CCCC(Cc2c[nH]c(=S)[nH]2)C1 (centres unmarked) [Compound 3, cyclopentyl-acetic acid 5-(2-thioxo-2,3-dihydro-1H-imidazol-4-ylmethyl)-cyclohex-1-enylmethyl ester]",effect on tactile hypersensitivity,tactile hypersensitivity; oral dose of 30 ug/kg,full effect
same,alleviation of tactile hypersensitivity,"tactile hypersensitivity; oral dosing, dose response (FIG. 1)",alleviates tactile hypersensitivity; also recorded: very potent at alleviating the tactile sensitivity in a dose-related manner
same,lowering of IOP,[1],lower rabbit IOP
same,decrease in IOP,[1]; 35 ul of 0.03% solution,30%
same,sedation,"locomotor activity [2]; rats, oral dose of 3 mg/kg",did not sedate
same,sedation,"locomotor activity [3]; mice, oral dose of 3 mg/kg",did not sedate
same,margin of safety / therapeutic window,"locomotor activity [3]; oral, mice or rats (FIG. 4)",> 300 fold
"Brc1c(N=C2NCCN2)ccc2nccnc12 [brimonidine, reference compound]",activity in mouse model of tactile hypersensitivity,tactile hypersensitivity,active
"Clc1cccc(Cl)c1N=C1NCCN1 [clonidine, reference compound]",activity in mouse model of tactile hypersensitivity,tactile hypersensitivity,active
OCC1=CCCC(Cc2c[nH]c(=S)[nH]2)C1 (centres unmarked) [drawing 35],Intrinsic activity α1,α1,0.93
same,Intrinsic activity α2A,alpha2A receptor,0.85
same,Intrinsic activity α2B,alpha2B receptor,0.98
same,Intrinsic activity α2C,alpha2C receptor,1.10
